Data on one molecule can be found in patent US8847018B2, “Plants tolerant to HPPD inhibitor herbicides” (Bayer CropScience AG, priority 2009, dated 2014).

As usually defined, the Ki is a measure of affinity in units of concentration, obtained from inhibition or displacement. Low readings indicate a stronger hold on the target, high ones a looser hold on the target. For orientation: kon means the rate constant with which the complex forms. As a reminder, the koff is a measure of how fast the partners let go of each other.

For assay [1], the system named is Rhodococcus HPPD SEQ ID No. 19 (FMP23e). The assay can be described thus: biochemical. Type of assay: biochemical, Rhodococcus sp. (strain RHA1), isolate ro02040. The following applies: SEQ ID No. 19.
Assay [2] deals with tobacco calli containing HPPD SEQ ID No. 7 (Rhodococcus). The assay can be described thus: Rooting of calli on media with tembotrione. Type of assay: cell-based, Nicotiana tabacum. The following applies: calli containing SEQ ID No. 7; 6 to 12 weeks. Here is the method: (§1) The leaf disks were co-cultivated for 2 days with Agrobacterium tumefaciens cells containing either the binary vector FMP22ebv, FMP23ebv or AtHPPDbv. Then the leaf disks were transferred to a media allowing the regeneration of shoots for 6 weeks on MS (Musharige and Skoog, (1962), Physiol Plant 15(3): 473-497) media supplemented with BAP ([…]; Benzylaminopurine), carbenicillin ([…]), cefotaxine (250 mg/mL), kanamycin (75 mg/mL) and tembotrione (10^−6 M)
(§2) Regenerated calli were transferred on media to induce the development of roots for 6 to 12 weeks: MS (½), supplemented with carbenicillin (250 mg/mL), cefotaxine (250 mg/mL), kanamycin (75 mg/mL), and tembotrione (10^−6 M).
(§3) Regenerated shoot calli from a cell transformed with a nucleic acid sequence encoding an HPPD comprising SEQ ID No. 11 (Arabidopsis thaliana) SEQ ID No. 21 or SEQ ID No. 7 (Rhodococcus) were transferred to a media inducing root growth which media was further supplemented with the HPPD inhibitor tembotrione for 6 to 12 weeks.

Assay [3] has as its system tobacco calli containing HPPD SEQ ID No. 21 (Rhodococcus). Briefly: Rooting of calli on media with tembotrione. The class given is cell-based, Nicotiana tabacum. The following applies: calli containing SEQ ID No. 21; 6 to 12 weeks. Here is the method:
as §1, §2, §3

Assay [4] relates to tobacco calli containing HPPD SEQ ID No. 11 (Arabidopsis thaliana). The assay can be described thus: Rooting of calli on media with tembotrione. The class given is cell-based, Nicotiana tabacum. Conditions: calli containing SEQ ID No. 11; 6 to 12 weeks. On the procedure: as §1, §2, §3
Assay [5] deals with Rhodococcus HPPD SEQ ID No. 19 (FMP23e). Briefly: HPLC assay of HPPD in vitro kinetic properties. The class given is biochemical, Rhodococcus sp. (strain RHA1), isolate ro02040. The following applies: 2 mM HPP; SEQ ID No. 19.
Assay [6] has as its target (Rhodococcus jostii, UniProt Q0SF39). The assay can be described thus: HPLC assay of HPPD in vitro kinetic properties. The class given is biochemical, Rhodococcus sp. (strain RHA1), isolate ro02040.
For assay [7], the system named is rice plants containing FMP23e. The assay can be described thus: Response to tembotrione in glasshouse trials, T0 rice. The following applies: 100 g AI/ha, 7 DAT. Type of assay: in vivo. Here is the method: (§4) T0 rooted plantlets (either selected on phosphinothricin alone or on phosphinothricin supplemented with tembotrione) were transferred to soil in the glasshouse. Following an acclimation period, sufficiently grown plants were treated with the different HPPD inhibitor herbicides. As an example, T0 plants were sprayed with tembotrione of formulation type WP20 100 g Al/ha supplemented with ammonium sulfate and methyl ester raps oil. Seven days after the spray application, the symptoms due to the application of the herbicide were evaluated and compared the symptoms observed on wild type plants submitted to the same treatment.
(§5) The plants were classified in three categories based on the phenotype developed in response to the herbicide seven days after the treatment.

For assay [8], the system named is rice plants containing FMP22e. The assay is described as above. Type of assay: in vivo. Conditions: 100 g AI/ha, 7 DAT. Here is the method:
as §4, §5

Assay [9] relates to soybean plants expressing the FMP22 HPPD protein. The assay can be described thus: Greenhouse treatment of soybean events with tembotrione. Type of assay: in vivo. The following applies: one FMP22 event; 100 g AI/ha, ten days after application. On the procedure: (§6) Plants containing the transgene were then sprayed with HPPD inhibitor herbicides, as for example with tembotrione at a rate of 100 g Al/ha. Ten days after the application the symptoms due to the application of the herbicide were evaluated and compared to the symptoms observed on a wild type plants under the same conditions.
(§7) Concerning FMP22, one event expressing the FMP22 HPPD protein have been generated from the green shoots of above and were transferred to the greenhouse. Four weeks after acclimation, i.e. plants at a developmental stage of 3-4 internodes were treated with 100 g Al/ha tembotrione prepared from a WP 20 formulation supplemented with ammonium sulfate and methyl ester raps oil. Ten days after application, the symptoms caused by the application of the HPPD inhibitor herbicide were evaluated and compared to the symptoms observed on treated non-transgenic wild-type soybean plants. […] Concerning FMP23, six events expressing the FMP23 HPPD protein have been generated from the green shoots of above and were transferred to the greenhouse. […] Ten days after application, the symptoms caused by the application of the HPPD inhibitor herbicide were evaluated and compared to the symptoms observed on treated non-transgenic wild-type soybean plants.

For assay [10], the system named is soybean plants expressing the FMP23 HPPD protein. Described as above. The class given is in vivo. The following applies: six FMP23 events; 100 g AI/ha, ten days after application. On the procedure:
as §6, §7

For assay [11], the system named is T0 tobacco plants containing FMP22t. The assay can be described thus: Response of T0 tobacco plants to tembotrione. Type of assay: in vivo, Nicotiana tabacum. The following applies: 100 g AI/ha, two weeks after treatment. On the procedure:
(§8) As an example, rooted plants containing the T-DNA PromCaMV35S-OTP-HIS6-FMP22t-TerCaMV35S or containing the T-DNA PromCaMV35S-OTP-HIS6-FMP23t-TerCaMV35S, are transferred to the greenhouse under standard growth conditions. Following a period of acclimation of two weeks, the T0 plants are treated with a mixture containing 100 g tembotrione/ha prepared from a WP20 (wettable powder 20%) formulation supplemented with ammonium sulfate and methyl ester raps oil.
(§9) Two weeks after the treatment, the symptoms due to the application of the herbicides are evaluated. The plants are classified in four categories. The treated plants evaluated as “0” are looking like the untreated tobacco plants. The plants evaluated as “1” display temporarily light bleaching phenotype due to the application of the herbicides. The plants evaluated as “2” display permanent light to strong bleaching symptoms. Finally the plants evalutated as “3” are looking like wild type tobacco plants submitted to the same treatment.

The subject of assay [12] is T0 tobacco plants containing FMP23t. The assay can be described thus: Response of T0 tobacco plants to tembotrione. The following applies: 100 g AI/ha, two weeks after treatment. Type of assay: in vivo, Nicotiana tabacum. Here is the method: as §8, §9

Each structure is given as a SMILES string. Entries after “also recorded” stand apart in the source; their conditions may differ.

Take `CS(=O)(=O)c1ccc(C(=O)C2C(=O)CCCC2=O)c(Cl)c1COCC(F)(F)F` [Tembotrione, 2-[2-chloro-4-(methylsulfonyl)-3-[(2,2,2,-tri-fluoroethoxy)methyl]benzoyl]-1,3-cyclo-hexanedione]: the pI50 in [1] (2 mM HPP, 3 minutes incubation) was 5.1. Moreover, in assay [1] (5.0 × 10^−6 M inhibitor), the “percentage of inhibition compared to activity in absence of the inhibitor” value is 70%. In assay [2], the “% Elongation & rooting on 10^−6 M tembotrione” value was determined as 65%; the “root growth on media with tembotrione” value was “clearly developed numerous and healthy roots”. In assay [3], the “% Elongation & rooting on 10^−6 M tembotrione” value came to 63%; the “root growth on media with tembotrione” value was “clearly developed numerous and healthy roots”. Further, in assay [4], the “root growth on media with tembotrione” value is recorded as “On none of the events containing the HPPD defined by SEQ ID No. 11 (Arabidopsis thaliana) or none transformed calli, root growth was observed”. In assay [5], this molecule showed a Ki of 2000 nM. In addition, the kon in assay [6] (read-out: k1 (Kon, association rate constant)) came to 3200 M⁻¹ s⁻¹. The koff in [6] (read-out: k−1 (Koff, enzyme-inhibitor complex dissociation)) is 0.0063 s⁻¹. In [7], the “Class II (number of plants, temporary light injuries, injury: 10-40%)” value amounted to 10 and the “Class III (number of plants, strong injuries, injury: 41-100%)” value was determined as 7. Besides, the “Class II (number of plants, temporary light injuries, injury: 10-40%)” value in [8] came to 19. For the same molecule, the “symptoms caused by the herbicide” value in assay [9] is “transitory light bleaching symptoms but recovered 14 days after tembotrione application”. The “symptoms caused by the herbicide” value in [10] is listed as “One of the six events didn't show any bleaching phenotype; also recorded: One event showed transitory light bleaching symptoms but recovered 14 days after tembotrione application; also recorded: remaining four events exhibited the bleaching like non-transgenic wild-type soybean plant”. For the same molecule, in assay [11], the “number of plants in category 0 (looking like untreated tobacco plants)” value was found to be 4, the “number of plants in category 1 (temporarily light bleaching)” value was 2, the “number of plants in category 2 (permanent light to strong bleaching)” value turned out to be 5 and the “number of plants in category 3 (like treated wild type tobacco plants)” value is reported as 3. In assay [12], the “number of plants in category 0 (looking like untreated tobacco plants)” value came out at 5 and the “number of plants in category 3 (like treated wild type tobacco plants)” value came out at 4.
